≈ marks a conversion by molar mass, not a printed value.
Assays:
Test in all cases: MIC, in vitro agar dilution method
Type in all cases: cell-based
[1] = tested on: Streptococcus pyogenes 308 A; settings: S.p.1, Streptococcus pyogenes 308 A; agar dilution; read-out: MIC
Procedure: (§1) The MICs of the new cephalosporins of the present invention against Gram-positive and Gram-negative bacteria were determined by an in vitro agar dilution method. For comparisons, the MIC values of ceftazidime are also listed.
(§2) In vitro antimicrobial activity of the cephalosporins (l) (MIC:
S.p.1, Streptococcus pyogenes 308 A;

[2] = tested on: Streptococcus pyogenes A 77; settings: A77; S.p.2, Streptococcus pyogenes A 77; agar dilution; read-out: MIC
Procedure: as §1, §2
S.p.2, Streptococcus pyogenes A 77;

[3] = tested on: Streptococcus faecium MD; settings: Enterococcus faecium; S.f., Streptococcus faecium MD; agar dilution; read-out: MIC
Procedure: as §1, §2
S.f., Streptococcus faecium MD;

[4] = tested on: Staphlococcus aureus SG 511; settings: S.a.1, Staphlococcus aureus SG 511; agar dilution; read-out: MIC
Procedure: as §1, §2
S.a.1, Staphlococcus aureus SG 511;

[5] = tested on: Staphylococcus aureus 285; settings: S.a.2, Staphylococcus aureus 285; agar dilution; read-out: MIC
Procedure: as §1, §2
E.c. TEM, S.a. 2, Staphylococcus aureus 285;

[6] = tested on: Staphylococcus aureus 503; settings: S.a.3, Staphylococcus aureus 503; agar dilution; read-out: MIC
Procedure: as §1, §2
S.a.3, Staphylococcus aureus 503;

[7] = tested on: Escherichia coli O55; settings: E.c.1, Escherichia coli O55
Procedure: as §1, §2
E.c.1, Escherichia coli O55;

[8] = tested on: Escherichia coli DC0; settings: E.c.2, Escherichia coli DC0
Procedure: as §1, §2
E.c.2, Escherichia coli DC0;

[9] = tested on: Escherichia coli TEM; settings: E.c.3, Escherichia coli TEM
Procedure: as §1, §2
E.c.3, Escherichia coli TEM;

[10] = tested on: Escherichia coli 1507 E; settings: E.c.4, Escherichia coli 1507 E
Procedure: as §1, §2
E.c.4, Escherichia coli 1507 E;

[11] = tested on: E.c.5; settings: Escherichia coli, E.c.5 (strain not defined)
Procedure: as §1

[12] = tested on: Pseudomonas aeruginosa 9027; settings: P.a.1, Pseudomonas aeruginosa 9027; agar dilution; read-out: MIC
Procedure: as §1, §2
P.a.1, Pseudomonas aeruginosa 9027;

[13] = tested on: Pseudomonas aeruginosa 1592 E; settings: P.a.2, Pseudomonas aeruginosa 1592 E; agar dilution; read-out: MIC
Procedure: as §1, §2
P.a.2, Pseudomonas aeruginosa 1592 E;

[14] = tested on: Pseudomonas eruginosa 1771; settings: P.a.3, Pseudomonas eruginosa 1771
Procedure: as §1, §2
P.a.3, Pseudomonas eruginosa 1771;

[15] = tested on: Pseudomonas aeruginosa 1771 M; settings: P.a.4, Pseudomonas aeruginosa 1771 M; agar dilution; read-out: MIC
Procedure: as §1, §2
P.a.4, Pseudomonas aeruginosa 1771 M;

[16] = tested on: Salmonella typhimurium; settings: Salmonella enterica; S.t., Salmonella typhimurium; agar dilution; read-out: MIC
Procedure: as §1, §2
S.t., Salmonella typhimurium;

[17] = tested on: Klebsiella oxytoca 1082 E; settings: K.o., Klebsiella oxytoca 1082 E; agar dilution; read-out: MIC
Procedure: as §1, §2
K.o., Klebsiella oxytoca 1082 E;

[18] = tested on: Klebsiella aerogenes 1552 E; settings: K.a., Klebsiella aerogenes 1552 E; agar dilution; read-out: MIC
Procedure: as §1, §2
K.a., Klebsiella aerogenes 1552 E;

[19] = tested on: Enterobacter cloacae P 99; settings: Enterobacter cloacae, P99
Procedure: as §1, §2
En.c.1, Enterobacter cloacae P 99;

[20] = tested on: Enterobacter cloacae 1321 E; settings: En.c.2, Enterobacter cloacae 1321 E; agar dilution; read-out: MIC
Procedure: as §1, §2
En.c.2, Enterobacter cloacae 1321 E.

Q: Which results are given for `CON=C(C(=O)NC1C(=O)N2C(C(=O)[O-])=C(C=CC[N+]3(C)C4CCC3CC(O)C4)CSC12)c1csc(N)n1` (stereo not drawn) [1-i, 7β-[2-(2-Aminothiazol-4-yl)-(Z)-2-methoxyiminoacetamido]-3-[(E)-3-tropinio-1-propen-1-yl]-3-cephem-4-carboxylate]?
A: MIC [1]: 0.013 µg/mL (≈ 0.0231 µM); MIC [2]: 0.013 µg/mL (≈ 0.0231 µM); MIC [3]: 50 µg/mL (≈ 88.9 µM); MIC [4]: 0.39 µg/mL (≈ 0.693 µM); MIC [5]: 0.78 µg/mL (≈ 1.39 µM); MIC [6]: 0.2 µg/mL (≈ 0.355 µM); MIC [7]: 0.025 µg/mL (≈ 0.0444 µM); MIC [8]: 0.049 µg/mL (≈ 0.0871 µM); MIC [9]: 0.025 µg/mL (≈ 0.0444 µM); MIC [10]: 0.098 µg/mL (≈ 0.174 µM); MIC [11]: 0.049 µg/mL (≈ 0.0871 µM); MIC [12]: 6.25 µg/mL (≈ 11.1 µM); MIC [13]: 3.13 µg/mL (≈ 5.56 µM); MIC [14]: 1.56 µg/mL (≈ 2.77 µM); MIC [15]: 0.2 µg/mL (≈ 0.355 µM); MIC [16]: 0.049 µg/mL (≈ 0.0871 µM); MIC [17]: 1.56 µg/mL (≈ 2.77 µM); MIC [18]: 0.025 µg/mL (≈ 0.0444 µM); MIC [19]: 6.25 µg/mL (≈ 11.1 µM); MIC [20]: 0.025 µg/mL (≈ 0.0444 µM)

Q: Which results are given for `CO/N=C(\C(=O)N[C@@H]1C(=O)N2C(C(=O)[O-])=C(/C=C/C[N+]3(C)CC[C@H](O)[C@H](O)C3)CS[C@H]12)c1csc(N)n1` (relative stereo) [1-e, 7β-[2-(2-Aminothiazol-4-yl)-(Z)-2-methoxyiminoacetamido]-3-[(E)-3-(3,4-cis-dihydroxy-1-methyl-1-piperidinio)-1-propen-1-yl]-3-cephem-4-carboxylate]?
A: MIC [1]: 0.013 µg/mL (≈ 0.0235 µM); MIC [2]: 0.013 µg/mL (≈ 0.0235 µM); MIC [3]: 50 µg/mL (≈ 90.5 µM); MIC [4]: 0.39 µg/mL (≈ 0.706 µM); MIC [5]: 0.78 µg/mL (≈ 1.41 µM); MIC [6]: 0.2 µg/mL (≈ 0.362 µM); MIC [7]: 0.025 µg/mL (≈ 0.0452 µM); MIC [8]: 0.049 µg/mL (≈ 0.0887 µM); MIC [9]: 0.025 µg/mL (≈ 0.0452 µM); MIC [10]: 0.049 µg/mL (≈ 0.0887 µM); MIC [11]: 0.049 µg/mL (≈ 0.0887 µM); MIC [12]: 6.25 µg/mL (≈ 11.3 µM); MIC [13]: 3.13 µg/mL (≈ 5.66 µM); MIC [14]: 1.56 µg/mL (≈ 2.82 µM); MIC [15]: 0.2 µg/mL (≈ 0.362 µM); MIC [16]: 0.025 µg/mL (≈ 0.0452 µM); MIC [17]: 3.13 µg/mL (≈ 5.66 µM); MIC [18]: 0.025 µg/mL (≈ 0.0452 µM); MIC [19]: 6.25 µg/mL (≈ 11.3 µM); MIC [20]: 0.025 µg/mL (≈ 0.0452 µM)

Q: For `CO/N=C(\C(=O)N[C@@H]1C(=O)N2C(C(=O)[O-])=C(/C=C/C[N+]3(C)CCCCC3CO)CS[C@H]12)c1csc(N)n1` (some centres unmarked) [1-h], which MIC [1] is on record?
A: 0.013 µg/mL (≈ 0.0236 µM)

Q: What about the MIC [2] of the same compound?
A: 0.007 µg/mL (≈ 0.0127 µM)

Q: What about the MIC [3] of the same compound?
A: 25 µg/mL (≈ 45.4 µM)

Q: What about the MIC [4] of the same compound?
A: 0.39 µg/mL (≈ 0.708 µM)

Q: And the MIC [5]?
A: 0.39 µg/mL (≈ 0.708 µM)

Q: And the MIC [6]?
A: 0.2 µg/mL (≈ 0.363 µM)

Q: What about the MIC [7] of the same compound?
A: 0.013 µg/mL (≈ 0.0236 µM)

Q: And the MIC [8]?
A: 0.049 µg/mL (≈ 0.089 µM)

Q: What about the MIC [9] of the same compound?
A: 0.025 µg/mL (≈ 0.0454 µM)

Q: What about the MIC [10] of the same compound?
A: 0.049 µg/mL (≈ 0.089 µM)

Q: And the MIC [11]?
A: 0.049 µg/mL (≈ 0.089 µM)

Q: What about the MIC [12] of the same compound?
A: 6.25 µg/mL (≈ 11.3 µM)

Q: What about the MIC [13] of the same compound?
A: 3.13 µg/mL (≈ 5.68 µM)

Q: What about the MIC [14] of the same compound?
A: 1.56 µg/mL (≈ 2.83 µM)

Q: What about the MIC [15] of the same compound?
A: 0.098 µg/mL (≈ 0.178 µM)

Q: What about the MIC [16] of the same compound?
A: 0.025 µg/mL (≈ 0.0454 µM)

Q: What about the MIC [17] of the same compound?
A: 1.56 µg/mL (≈ 2.83 µM)

Q: What about the MIC [18] of the same compound?
A: 0.025 µg/mL (≈ 0.0454 µM)

Q: And the MIC [19]?
A: 3.13 µg/mL (≈ 5.68 µM)

Q: And the MIC [20]?
A: 0.013 µg/mL (≈ 0.0236 µM)

Q: Which MIC [1] does the source give for `CO/N=C(\C(=O)N[C@@H]1C(=O)N2C(C(=O)[O-])=C(/C=C/C[N+]3(C)C[C@@H](O)[C@@H](O)C3)CS[C@H]12)c1csc(N)n1` (stereo partly drawn) [1-a, 7β-[2-(2-Aminothiazol-4-yl)-(Z)-2-methoxyiminoacetamido]-3-[(E)-3-(meso-3,4-dihydroxy-1-methyl-1-pyrrolidinio)-1-propen-1-yl]-3-cephem-4-carboxylate] here?
A: 0.013 µg/mL (≈ 0.0241 µM)

Q: What about the MIC [2] of the same compound?
A: 0.013 µg/mL (≈ 0.0241 µM)

Q: And the MIC [3]?
A: 50 µg/mL (≈ 92.8 µM)

Q: What about the MIC [4] of the same compound?
A: 0.39 µg/mL (≈ 0.724 µM)

Q: And the MIC [5]?
A: 0.78 µg/mL (≈ 1.45 µM)

Q: What about the MIC [6] of the same compound?
A: 0.2 µg/mL (≈ 0.371 µM)

Q: What about the MIC [7] of the same compound?
A: 0.013 µg/mL (≈ 0.0241 µM)

Q: What about the MIC [8] of the same compound?
A: 0.049 µg/mL (≈ 0.091 µM)

Q: And the MIC [9]?
A: 0.025 µg/mL (≈ 0.0464 µM)

Q: What about the MIC [10] of the same compound?
A: 0.049 µg/mL (≈ 0.091 µM)

Q: What about the MIC [11] of the same compound?
A: 0.049 µg/mL (≈ 0.091 µM)

Q: And the MIC [12]?
A: 3.13 µg/mL (≈ 5.81 µM)

Q: And the MIC [13]?
A: 3.13 µg/mL (≈ 5.81 µM)

Q: What about the MIC [14] of the same compound?
A: 1.56 µg/mL (≈ 2.9 µM)

Q: And the MIC [15]?
A: 0.098 µg/mL (≈ 0.182 µM)

Q: What about the MIC [16] of the same compound?
A: 0.013 µg/mL (≈ 0.0241 µM)

Q: What about the MIC [17] of the same compound?
A: 3.13 µg/mL (≈ 5.81 µM)

Q: And the MIC [18]?
A: 0.025 µg/mL (≈ 0.0464 µM)

Q: What about the MIC [19] of the same compound?
A: 6.25 µg/mL (≈ 11.6 µM)

Q: And the MIC [20]?
A: 0.013 µg/mL (≈ 0.0241 µM)
